Experimental data reported in patent US20180116988A1, “METHODS OF PREVENTING AND TREATING AUTOIMMUNITY” (THE REGENTS OF THE UNIVERSITY OF COLORADO a body corporate, priority 2015, published 2018).
Like-named read-outs stand apart in the source and are kept apart here.

Experiments:
[1] = design: species or system human; details: in vivo
From the text: (§1) Human leukocyte antigen (HLA) alleles confer significant genetic risk for type 1 diabetes (T1D) with recent studies implicating DQ8 in its pathogenesis, and DQ8 antigen presentation can be inhibited with methyldopa in animal models. In this pilot study, the inventors evaluated methyldopa treatment in 10 DQ8 positive human subjects with T1D, ages 18-46 years (mean 27) with less than 2 years of diabetes duration (mean 3 months). This was an open label phase 1b dose escalation study.

DR4 = DR4 T cell response in T1D patients treated with methyldopa; assay type: in vivo, human; details: T1D subjects treated with varying doses of methyldopa
From the text: as §1

DQ8 = molecular target: T1, DQ8 (Homo sapiens, UniProt P01909+P01920, A209T/A45G/C70Q/D89A/E183D/E77G/F237L/G63E/H199R/I129T/K197E/L178F/L74F/L98V/N214S/Q57E/Q76R/S185I/S97I/T49S/V73L/Y58L); assay: DQ8-stimulated IL-2 T cell response in T1D patients treated with methyldopa (open label phase 1b dose escalation study); assay type: in vivo; details: for reduction in DQ8-stimulated IL-2 T cell response: DQ8 positive T1D subjects
T1 construct: endogenous in cells; host or cells: blood cells of DQ8-positive human T1D subjects treated with methyldopa
T1 sequence (P01920 33-261 A45G/Y58L/E77G/D89A/H199R/N214S, other chains not shown): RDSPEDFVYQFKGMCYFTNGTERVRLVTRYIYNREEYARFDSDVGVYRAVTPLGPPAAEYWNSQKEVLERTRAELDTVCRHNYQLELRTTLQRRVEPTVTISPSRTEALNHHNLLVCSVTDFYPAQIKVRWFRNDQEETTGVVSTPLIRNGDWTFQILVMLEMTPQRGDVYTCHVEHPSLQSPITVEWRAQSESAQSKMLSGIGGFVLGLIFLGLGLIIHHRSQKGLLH
From the text: as §1

[2] = Glucose control in T1D patients treated with methyldopa over 3 months; assay type: in vivo, human
From the text: as §1

DQ8-stimulated IL-2 T cell response after stopping therapy (DQ8; 6 weeks after stopping therapy): returned to normal
reduction in DQ8-stimulated IL-2 T cell response (DQ8; at 1 week of dose escalation): 32%
reduction in DQ8-stimulated IL-2 T cell response (DQ8; at 3 weeks of dose escalation): 39%
Structure (SMILES): C[C@](N)(Cc1ccc(O)c(O)c1)C(=O)O [methyldopa, α-Methyl-3,4-dihydroxyphenylalanine]
subjects tolerating dosage ([1]; human): 9/10
serious adverse events (hypotension, DKA, or hypoglycemia) [1]: No serious adverse events
subjects tolerating dosage [1]: All subjects tolerated
DR4 T cell responses (DR4): minimally effected
glycemic control [2]: good glycemic control
